System: Male spontaneously hypertensive rats (SHR), arterial blood pressure
Assay: Depressor response after intravenous administration (30 μg/kg), Table 1
Format: in vivo, rat
Conditions: for Duration: '90<' means greater than 90
Procedure: Male spontaneously hypertensive rats (SHR) which had mean arterial blood pressures higher than 140 mmHg were used for the experiments. Arterial blood pressure was measured through the catherized artery with a pressure transducer (MPU-0.5, manufactured by Nihon Kohden Kabushiki Kaisha). The catheter was inserted into the abdominal aorta via the median coccygcal artery of SHR under light ether anesthesia. The recordings were made on a rectigraph (manufactured by Sanei Sokki Kabushiki Kaisha). The 1,4-dihydropyridine derivatives prepared in the foregoing examples were administered with catheter which was inserted previously into the caudal vein or duodenum at least two hours after the operation. SHR were restrained with wire mesh cage immediately after the operation. Each derivative to be tested was dissolved in 1.5% PVP/ethanol, and then diluted with 0.9% saline or intravenous administration (30 μg/kg), or suspended in 5% gum arabic solution of intraduodenal administration (1 mg/kg).

| Structure (SMILES) | The time to reach the lowest BP | ΔBP (Maximum depressor response) | Duration | halflife (number in parentheses in Duration column) |
| --- | --- | --- | --- | --- |
| CC=CC=CCOC(=O)C1=C(C)NC(C)=C(C(=O)OCC=CC)C1c1cccc([N+](=O)[O-])c1 (stereo not drawn) [Example 78, 2-butenyl 2,4-hexadienyl 4-(3-nitrophenyl)-2,6-dimethyl-1,4-dihydropyridine-3,5-dicarboxylate] | 2.4 min | 23 mmHg |  |  |
| CC1=C(C(=O)OCC#Cc2ccccc2)C(c2cccc([N+](=O)[O-])c2)C(C(=O)OCC=Cc2ccccc2)=C(C)N1 (stereo not drawn) [Example 46, Cinnamyl phenylpropargyl 4-(3-nitrophenyl)-2,6-dimethyl-1,4-dihydropyridine-3,5-dicarboxylate] | 20 min | 20 mmHg |  |  |
| CC=CC=CCOC(=O)C1=C(C)NC(C)=C(C(=O)OCC(C)C)C1c1cccc([N+](=O)[O-])c1 (stereo not drawn) [Example 76, Isobutyl 2,4-hexadienyl 4-(3-nitrophenyl)-2,6-dimethyl-1,4-dihydropyridine-3,5-dicarboxylate] | 6 min | 32 mmHg |  |  |
| COC(=O)C1=C(C)NC(C)=C(C(=O)OC/C=C/C=C\c2ccccc2)C1c1cccc([N+](=O)[O-])c1 (stereo not drawn) [Example 58, Methyl (2E,4Z)-5-phenyl-2,4-pentadienyl 4-(3-nitrophenyl)-2,6-dimethyl-1,4-dihydropyridine-3,5-dicarboxylate] | 1.9 min | 64 mmHg |  |  |
| C=CCCOC(=O)C1=C(C)NC(C)=C(C(=O)OCC=CC=CC)C1c1cccc([N+](=O)[O-])c1 (stereo not drawn) [Example 79, 3-butenyl 2,4-hexadienyl 4-(3-nitrophenyl)-2,6-dimethyl-1,4-dihydropyridine-3,5-dicarboxylate] | 2.7 min | 55 mmHg |  |  |
| COC(=O)C1=C(C)NC(C)=C(C(=O)OCC=Cc2ccccc2)C1c1cccs1 (stereo not drawn) [Example 65, Cinnamyl methyl 4-(2-thienyl)-2,6-dimethyl-1,4-dihydropyridine-3,5-dicarboxylate] | 0.3 min | 18 mmHg |  |  |
| COCCOC(=O)C1=C(C)NC(C)=C(C(=O)OC(C)C=Cc2ccccc2)C1c1cccc([N+](=O)[O-])c1 (stereo not drawn) [Example 34, 1-methyl-3-phenyl-2-propenyl 2-methoxyethyl 4-(3-nitrophenyl)-2,6-dimethyl-1,4-dihydropyridine-3,5-dicarboxylate] | 5 min | 45 mmHg | > 230 min |  |
| COC(=O)C1=C(C)NC(C)=C(C(=O)OC(C=Cc2ccccc2)C(C)(C)C)C1c1cccc([N+](=O)[O-])c1 (stereo not drawn) [Example 6, 1-tert-butyl-3-phenyl-2-propenyl methyl 4-(3-nitrophenyl)-2,6-dimethyl-1,4-dihydropyridine-3,5-dicarboxylate] | 70 min | 55 mmHg | > 90 min |  |
| COC(=O)C1=C(C)NC(C)=C(C(=O)OC(C)C=CC2=C(C)CCCC2(C)C)C1c1cccc([N+](=O)[O-])c1 (stereo not drawn) [Example 74] | 20 min | 75 mmHg | > 120 min |  |
| CC1=C(C(=O)OCC=Cc2ccccc2)C(c2cccc([N+](=O)[O-])c2)C(C(=O)OC(C)C=Cc2ccccc2)=C(C)N1 (stereo not drawn) [Example 47, Cinnamyl 1-methyl-3-phenyl-2-propenyl 4-(3-nitrophenyl)-2,6-dimethyl-1,4-dihydropyridine-3,5-dicarboxylate] | 48 min | 67 mmHg | > 120 min |  |
| COC(=O)C1=C(C)NC(C)=C(C(=O)OCC=CC=Cc2ccc3ccccc3c2)C1c1cccc([N+](=O)[O-])c1 (stereo not drawn) [Example 53, Methyl 5-(2-naphthyl)-2,4-pentadienyl 4-(3-nitrophenyl)-2,6-dimethyl-1,4-dihydropyridine-3,5-dicarboxylate] | 18 min | 25 mmHg | 90 min |  |
| CC=CC=CCOC(=O)C1=C(C)NC(C)=C(C(=O)OC(C)(C)C)C1c1cccc([N+](=O)[O-])c1 (stereo not drawn) [Example 75, tert-butyl 2,4-hexadienyl 4-(3-nitrophenyl)-2,6-dimethyl-1,4-dihydropyridine-3,5-dicarboxylate] | 1 min | 28 mmHg |  |  |
| COC(=O)C1=C(C)NC(C)=C(C(=O)OCC=Cc2ccccc2)C1c1ccccc1F (stereo not drawn) [Example 40, Cinnamyl methyl 4-(2-fluorophenyl)-2,6-dimethyl-1,4-dihydropyridine-3,5-dicarboxylate] | 1.4 min | 60 mmHg | > 90 min |  |
| COCCOC(=O)C1=C(C)NC(C)=C(C(=O)OCC=Cc2ccccc2)C1c1cccc([N+](=O)[O-])c1 (stereo not drawn) [Example 13, Cinnamyl 2-methoxyethyl 4-(3-nitrophenyl)-2,6-dimethyl-1,4-dihydropyridine-3,5-dicarboxylate] | 2.0 min | 35 mmHg | > 270 min |  |
| COC(=O)C1=C(C)NC(C)=C(C(=O)OCC=C(c2ccccc2)c2ccccc2)C1c1cccc([N+](=O)[O-])c1 (stereo not drawn) [Example 9, 3,3-diphenyl-2-propenyl methyl 4-(3-nitrophenyl)-2,6-dimethyl-1,4-dihydropyridine-3,5-dicarboxylate] | 13 min | 12 mmHg | > 240 min |  |
| CC=CC=CCOC(=O)C1=C(C)NC(C)=C(C(=O)OCC)C1c1cccc([N+](=O)[O-])c1 (stereo not drawn) [Example 67, Ethyl 2,4-hexadienyl 4-(3-nitrophenyl)-2,6-dimethyl-1,4-dihydropyridine-3,5-dicarboxylate] | 1.0 min | 72 mmHg | > 90 min | 37 min |
| CCCC(C=Cc1ccccc1)OC(=O)C1=C(C)NC(C)=C(C(=O)OC)C1c1cccc([N+](=O)[O-])c1 (stereo not drawn) [Example 10, 1-propyl-3-phenyl-2-propenyl methyl 4-(3-nitrophenyl)-2,6-dimethyl-1,4-dihydropyridine-3,5-dicarboxylate] | 12.5 min | 72 mmHg | > 90 min |  |
| CC=CC=CCOC(=O)C1=C(C)NC(C)=C(C(=O)OCC=CC=CC)C1c1cccc([N+](=O)[O-])c1 (stereo not drawn) [Example 73, bis(2,4-hexadienyl) 4-(3-nitrophenyl)-2,6-dimethyl-1,4-dihydropyridine-3,5-dicarboxylate] | 6.0 min | 55 mmHg | > 120 min |  |
| COC(=O)C1=C(C)NC(C)=C(C(=O)OCCC=Cc2ccsc2)C1c1cccc([N+](=O)[O-])c1 (stereo not drawn) [Example 26, 4-(3-thienyl)-3-butenyl methyl 4-(3-nitrophenyl)-2,6-dimethyl-1,4-dihydropyridine-3,5-dicarboxylate] | 1.5 min | 47 mmHg |  |  |
| COC(=O)C1=C(C)NC(C)=C(C(=O)OCC(C)=Cc2ccccc2)C1c1cccc([N+](=O)[O-])c1 (stereo not drawn) [Example 22, 2-methyl-3-phenyl-2-propenyl methyl 4-(3-nitrophenyl)-2,6-dimethyl-1,4-dihydropyridine-3,5-dicarboxylate] | 1.8 min | 50 mmHg | 120 min |  |
| CC=CC=CCOC(=O)C1=C(C)NC(C)=C(C(=O)OCC=Cc2ccccc2)C1c1cccc([N+](=O)[O-])c1 (stereo not drawn) [Example 71, Cinnamyl 2,4-hexadienyl 4-(3-nitrophenyl)-2,6dimethyl-1,4-dihydropyridine-3,5-dicarboxylate] | 10 min | 42 mmHg | > 90 min |  |
| CCOC(=O)C1=C(C)NC(C)=C(C(=O)OC(C)C=Cc2ccccc2)C1c1cccc([N+](=O)[O-])c1 (stereo not drawn) [Example 31, 1-methyl-3-phenyl-2-propenyl ethyl 4-(3-nitrophenyl)-2,6-dimethyl-1,4-dihydropyridine-3,5-dicarboxylate] | 40 min | 73 mmHg | > 170 min |  |
| CC1=C(C(=O)OCC=Cc2ccccc2)C(c2cccc([N+](=O)[O-])c2)C(C(=O)OCC=Cc2ccccc2)=C(C)N1 (stereo not drawn) [Example 45, Dicinnamyl 4-(3-nitrophenyl)-2,6-dimethyl-1,4-dihydropyridine-3,5-dicarboxylate] | 27 min | 32 mmHg | > 90 min |  |
| COC(=O)C1=C(C)NC(C)=C(C(=O)OC/C=C\C=C\c2ccccc2)C1c1cccc([N+](=O)[O-])c1 (stereo not drawn) [Example 59, Methyl (2Z,4E)-5-phenyl-2,4-pentadienyl 4-(3-nitrophenyl)-2,6-dimethyl-1,4-dihydropyridine-3,5-dicarboxylate] | 1.8 min | 56.7 mmHg |  |  |
| CC=CC=CCOC(=O)C1=C(C)NC(C)=C(C(=O)OCCCC)C1c1cccc([N+](=O)[O-])c1 (stereo not drawn) [Example 83, n-butyl 2,4-hexadienyl 4-(3-nitrophenyl)-2,6-dimethyl-1,4-dihydropyridine-3,5-dicarboxylate] | 2.6 min | 45 mmHg |  |  |
| CC1=C(C(=O)OC(C)C)C(c2cccc([N+](=O)[O-])c2)C(C(=O)OC(C)C=Cc2ccccc2)=C(C)N1 (stereo not drawn) [Example 32, 1-methyl-3-phenyl-2-propenyl isopropyl 4-(3-nitrophenyl)-2,6-dimethyl-1,4-dihydropyridine-3,5-dicarboxylate] | 5 min | 90 mmHg | > 190 min |  |
